Substitutions are numbered along the chain they refer to. Calls of active or inactive are those of the source. The calls are words filed in the database; no cut-off is given here. Numbered stars: 1 amine (or outer) side, 2 acyl side, 3 side chain; on linkers, the order of the positions; unused ones are H or OH. Bridge positions count the residues as written; N and C are the ends. Square brackets hold non-standard residues; d marks the D form. Peptide text beside a SMILES is read from it. I, II: the chains in the order shown. Suberoyl = O=C(CCCCCCC(=O)[*:2])[*:1]; Mpa = O=C(O)CCS
Assays:
Danio rerio [1] = organism: Danio rerio; test: Potency index, ratio of isotocin dose to compound dose for effect on shoaling behavior in zebra fish; type: functional
[2] = biological target: T1, Oxytocin receptor (Homo sapiens) (UniProt P30559); test: Agonist activity at human oxytocin receptor expressed in HEK293 cells coexpressing Rluc8-tagged Galphaq, N-terminal GFP-tagged Ggamma2 and Gbeta1 protein incubated for 2 mins by Gq protein activation based BRET assay; type: cell-based; design: unit not given here
T1 sequence (whole entry): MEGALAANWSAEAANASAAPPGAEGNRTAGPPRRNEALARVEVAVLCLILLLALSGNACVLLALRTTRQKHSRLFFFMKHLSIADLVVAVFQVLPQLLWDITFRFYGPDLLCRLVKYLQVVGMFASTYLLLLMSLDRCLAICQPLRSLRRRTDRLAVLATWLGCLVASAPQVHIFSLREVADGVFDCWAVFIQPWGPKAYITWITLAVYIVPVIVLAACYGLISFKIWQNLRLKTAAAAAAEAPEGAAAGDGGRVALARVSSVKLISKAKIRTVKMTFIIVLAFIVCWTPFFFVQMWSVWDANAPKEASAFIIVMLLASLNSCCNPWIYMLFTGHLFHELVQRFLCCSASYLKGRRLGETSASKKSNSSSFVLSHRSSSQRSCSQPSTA

Oxytocin receptor [3] = biological target: Oxytocin receptor (Homo sapiens, UniProt P30559, C47A); test: (§1) Agonist activity at human oxytocin receptor C47A mutant expressed in HEK293 cells coexpressing Rluc8-tagged Galphaq, N-terminal GFP-tagged Ggamma2 and Gbeta1 protein incubated for 2 mins by Gq protein activation based BRET assay; type: cell-based
Oxytocin receptor (Homo sapiens, UniProt P30559, C47A), sequence (P30559 whole entry C47A): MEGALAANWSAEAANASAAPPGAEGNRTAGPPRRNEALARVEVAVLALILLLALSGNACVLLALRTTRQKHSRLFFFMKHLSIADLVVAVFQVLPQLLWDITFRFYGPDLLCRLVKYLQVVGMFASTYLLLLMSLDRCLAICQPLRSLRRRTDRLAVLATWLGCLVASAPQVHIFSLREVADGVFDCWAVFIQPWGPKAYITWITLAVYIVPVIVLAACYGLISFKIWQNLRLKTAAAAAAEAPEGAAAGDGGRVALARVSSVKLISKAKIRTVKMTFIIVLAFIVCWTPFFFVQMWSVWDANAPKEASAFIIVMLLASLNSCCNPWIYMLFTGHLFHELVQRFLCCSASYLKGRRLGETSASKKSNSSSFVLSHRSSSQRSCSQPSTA

[4] = tested on: T2, Oxytocin receptor (Homo sapiens), P30559 [C47A]; test: as §1; type: cell-based; design: unit not given here
T2 sequence (whole entry): T1 sequence (whole entry) with C47A

Oxytocin receptor [5] = biological target: T3, Oxytocin receptor (Homo sapiens, UniProt P30559); test: (§2) Agonist activity at human oxytocin receptor expressed in HEK293 cells coexpressing Rluc8-tagged Galphaq, N-terminal GFP-tagged Ggamma2 and Gbeta1 protein incubated for 2 mins in presence of TMH1-TAT peptide by Gq protein activation based BRET assay; type: cell-based
T3 sequence (P30559 whole entry): T1 sequence (whole entry)

[6] = biological target: T1, Oxytocin receptor (Homo sapiens); test: as §2; type: cell-based; design: unit not given here
[7] = biological target: T1, Oxytocin receptor (Homo sapiens); test: Agonist activity at human oxytocin receptor expressed in HEK293 cells coexpressing Rluc8-tagged Galphaq, N-terminal GFP-tagged Ggamma2 and Gbeta1 protein incubated for 2 mins in presence of TMH5-TAT peptide by Gq protein activation based BRET assay; type: cell-based; design: unit not given here
Mus musculus [8] = test: Effect on social behavior in OXTR+/- DBA/2J mouse assessed as increase in time spent exploring stranger mouse over time spent exploring empty cage at 0.005 ng/mouse, icv measured for 10 mins by three chamber method; type: functional, organism-based
[9] = biological target: T1, Oxytocin receptor (Homo sapiens); test: Displacement of [125I]-OVTA from human oxytocin receptor expressed in COS7 cell membrane; type: cell membranes
Danio rerio [10] = test: Effect on social behavior in zebra fish assessed as increase in time spent swimming parallel to nacre mutant fish over time spent shoaling close to wild type fish at 0.2 ng/kg, im; type: functional, organism-based
[11] = biological target: T1, Oxytocin receptor (Homo sapiens); test: Ratio of EC50 for human oxytocin receptor high affinity site expressed in HEK293 cells coexpressing Rluc8-tagged Galphaq, N-terminal GFP-tagged Ggamma2 and Gbeta1 protein to Ki for human oxytocin receptor high affinity site expressed in COS7 cell membrane; type: cell-based
[12] = biological target: T1, Oxytocin receptor (Homo sapiens); test: Ratio of EC50 for human oxytocin receptor low affinity site expressed in HEK293 cells coexpressing Rluc8-tagged Galphaq, N-terminal GFP-tagged Ggamma2 and Gbeta1 protein to Ki for human oxytocin receptor low affinity site expressed in COS7 cell membrane; type: cell-based
Oxytocin receptor [13] = biological target: T3, Oxytocin receptor; test: Agonist activity at human oxytocin receptor high affinity site expressed in HEK293 cells coexpressing Rluc8-tagged Galphaq, N-terminal GFP-tagged Ggamma2 and Gbeta1 protein incubated for 2 mins by Gq protein activation based BRET assay; type: cell-based
Oxytocin receptor [14] = biological target: T3, Oxytocin receptor; test: Agonist activity at human oxytocin receptor high affinity site expressed in HEK293 cells coexpressing Rluc8-tagged Galphaq, N-terminal GFP-tagged Ggamma2 and Gbeta1 protein incubated for 2 mins in presence of TMH5-TAT peptide by Gq protein activation based BRET assay; type: cell-based
[15] = tested on: T4, Oxytocin receptor (Homo sapiens), P30559 [V43A,C47A]; test: (§3) Agonist activity at human oxytocin receptor V43A/C47A double mutant expressed in HEK293 cells coexpressing Rluc8-tagged Galphaq, N-terminal GFP-tagged Ggamma2 and Gbeta1 protein incubated for 2 mins by Gq protein activation based BRET assay; type: cell-based; design: unit not given here
T4 sequence (whole entry): T1 sequence (whole entry) with V43A, C47A

Oxytocin receptor [16] = biological target: Oxytocin receptor (Homo sapiens, UniProt P30559, C47A/V43A); test: as §3; type: cell-based
Oxytocin receptor (Homo sapiens, UniProt P30559, C47A/V43A), sequence (P30559 whole entry V43A/C47A): as the sequence (P30559 whole entry C47A) above, with V43A counted along it

Mus musculus [17] = organism: Mus musculus; test: Potency index, ratio of oxytocin dose to compound dose for OXTR+/- DBA/2J mouse assessed as increase in time spent exploring stranger mouse over time spent exploring empty cage; type: functional
Oxytocin receptor [18] = biological target: T3, Oxytocin receptor; test: Agonist activity at human oxytocin receptor low affinity site expressed in HEK293 cells coexpressing Rluc8-tagged Galphaq, N-terminal GFP-tagged Ggamma2 and Gbeta1 protein incubated for 2 mins by Gq protein activation based BRET assay; type: cell-based
Oxytocin receptor [19] = biological target: T3, Oxytocin receptor; test: Agonist activity at human oxytocin receptor low affinity site expressed in HEK293 cells coexpressing Rluc8-tagged Galphaq, N-terminal GFP-tagged Ggamma2 and Gbeta1 protein incubated for 2 mins in presence of TMH5-TAT peptide by Gq protein activation based BRET assay; type: cell-based

Emax [2]: -0.11 | EC50 (Oxytocin receptor [3]): 40.5 nM | Emax [4]: -0.14 | EC50 (Oxytocin receptor [5]): 19.3 nM | Emax [6]: -0.16 | Emax [7]: -0.15 | KiH [9]: 0.08 pM | KiL [9]: 1.24 nM | Ratio [11]: 10 | Ratio [12]: 10 | EC50 (Oxytocin receptor [13]): 0.0008 nM | EC50 (Oxytocin receptor [14]): 0.0118 nM | Emax [15]: -0.1 | EC50 (Oxytocin receptor [16]): 117 nM | EC50 (Oxytocin receptor [18]): 67.3 nM | EC50 (Oxytocin receptor [19]): 33.4 nM
SMILES: CC[C@H](C)[C@@H]1NC(=O)[C@H](Cc2ccc(O)cc2)NC(=O)CCSSC[C@@H](C(=O)N2CCC[C@H]2C(=O)N[C@@H](CCCCNC(=O)CCCCCCC(=O)NCCCC[C@H](NC(=O)[C@@H]2CCCN2C(=O)[C@@H]2CSSCCC(=O)N[C@@H](Cc3ccc(O)cc3)C(=O)N[C@@H]([C@@H](C)CC)C(=O)N[C@@H](CCC(N)=O)C(=O)N[C@@H](CC(N)=O)C(=O)N2)C(=O)NCC(N)=O)C(=O)NCC(N)=O)NC(=O)[C@H](CC(N)=O)NC(=O)[C@H](CCC(N)=O)NC1=O (I: [Mpa]YIQNCPKG-NH2 / II: [Mpa]YIQNCPKG-NH2; disulfide I:1-I:6, II:1-II:6; linker I:8-II:8 via Suberoyl)
Ratio (Danio rerio [1]): 40 | Activity (Mus musculus [8]): Active | Activity (Danio rerio [10]): Active | Ratio (Mus musculus [17]): 100

Reference: ChEMBL document CHEMBL4477229, “Design and Characterization of Superpotent Bivalent Ligands Targeting Oxytocin Receptor Dimers via a Channel-Like Structure” (J Med Chem, 2016)
